{"source": "ChEMBL document CHEMBL1201862", "about": "“PubChem BioAssay data set” (2004)", "key": {"[1]": {"molecular_target": "Caspase-6 (Homo sapiens, UniProt P55212)", "sequence (P55212 24-179 limits assumed)": "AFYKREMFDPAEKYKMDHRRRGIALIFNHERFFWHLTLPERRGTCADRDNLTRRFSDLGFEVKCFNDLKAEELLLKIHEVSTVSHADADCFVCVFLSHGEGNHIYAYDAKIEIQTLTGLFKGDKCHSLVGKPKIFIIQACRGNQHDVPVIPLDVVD", "sequence (P55212 194-293 limits assumed)": "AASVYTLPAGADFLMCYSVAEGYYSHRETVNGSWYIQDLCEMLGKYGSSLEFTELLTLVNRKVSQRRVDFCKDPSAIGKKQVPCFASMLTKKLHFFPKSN", "test": "human caspase-6 inhibitors, dose response, biochemical, VEID-R110 fluorescence, cherry-pick (AID 720632)"}, "[2]": {"molecular_target": "T1, RNA-binding protein pos-1 (Caenorhabditis elegans, UniProt G5EF15)", "T1 sequence (G5EF15 whole entry)": "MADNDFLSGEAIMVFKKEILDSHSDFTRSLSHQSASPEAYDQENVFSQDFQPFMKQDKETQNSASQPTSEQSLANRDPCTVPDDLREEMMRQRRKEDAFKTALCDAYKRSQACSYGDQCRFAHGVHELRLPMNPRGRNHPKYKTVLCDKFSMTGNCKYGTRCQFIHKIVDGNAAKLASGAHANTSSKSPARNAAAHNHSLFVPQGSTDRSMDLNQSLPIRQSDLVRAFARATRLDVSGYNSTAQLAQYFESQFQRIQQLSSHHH", "test": "inhibitors of POS-1/mex-3 RNA binding, dose response, biochemical, fluorescence polarization (AID 1964);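 further: purified POS-1 fused to maltose binding protein made in E. coli; potency of compounds blocking POS-1 binding to fluorescent RNA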"}, "[3]": {"molecular_target": "T2, Zinc finger protein mex-5 (Caenorhabditis elegans, UniProt Q9XUB2)", "T2 sequence (Q9XUB2 whole entry)": "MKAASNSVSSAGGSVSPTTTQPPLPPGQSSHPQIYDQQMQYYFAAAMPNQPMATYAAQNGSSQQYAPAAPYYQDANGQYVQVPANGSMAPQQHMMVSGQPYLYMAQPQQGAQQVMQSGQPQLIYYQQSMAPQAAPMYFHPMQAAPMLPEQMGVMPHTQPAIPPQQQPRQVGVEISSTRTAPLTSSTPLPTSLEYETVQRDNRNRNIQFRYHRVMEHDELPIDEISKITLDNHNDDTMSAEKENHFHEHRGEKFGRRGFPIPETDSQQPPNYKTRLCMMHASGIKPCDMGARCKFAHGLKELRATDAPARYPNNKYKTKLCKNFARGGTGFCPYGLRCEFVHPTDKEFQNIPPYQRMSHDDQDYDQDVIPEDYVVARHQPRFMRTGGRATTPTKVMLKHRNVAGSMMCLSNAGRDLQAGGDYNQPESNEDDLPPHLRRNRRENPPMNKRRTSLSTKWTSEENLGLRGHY", "test": "MEX-5/TCR-2 RNA interaction inhibitors, dose response, biochemical, C. elegans, fluorescence polarization (AID 1960)"}, "[4]": {"molecular_target": "Kallikrein-7 (Homo sapiens, UniProt P49862)", "sequence (P49862 whole entry)": "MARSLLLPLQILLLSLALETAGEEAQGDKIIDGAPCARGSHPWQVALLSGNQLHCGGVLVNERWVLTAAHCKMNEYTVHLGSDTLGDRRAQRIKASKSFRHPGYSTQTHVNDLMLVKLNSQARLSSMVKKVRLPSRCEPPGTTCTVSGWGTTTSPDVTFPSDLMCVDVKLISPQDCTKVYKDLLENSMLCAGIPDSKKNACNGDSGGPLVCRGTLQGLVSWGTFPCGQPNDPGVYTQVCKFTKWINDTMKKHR", "test": "Fluorescence Intensity-based biochemical primary high throughput dose response assay to identify activators of kallikrein-7 (K7) zymogen."}, "[5]": {"test": "inhibitors of clade B AD8 Env fusion, dose response, cell-based, cherry-pick (AID 652062);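 further: potency is for inhibitors of fusion seen as a drop in luminescence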", "type": "functional"}, "[6]": {"test": "ZM109 Env clade C HIV-1 fusion inhibitors, dose response, HeLa effector, CEM target cells, luciferase, cherry-pick (AID 652058)", "type": "functional, cell-based"}, "[7]": {"test": "off-target signal loss in HeLa-CEM21 co-culture – HeLa F-luc CTL cells, cherry-picked, counter-screen for HIV-1 Env fusion inhibitor project, dose response (AID 652040);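 further: potency for signal decrease marking cytotoxic or nonspecific inhibition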", "type": "functional, cell-based"}, "[8]": {"test": "inhibitors of HIV Env-driven cell fusion, dose response, cherry-pick (AID 652057)", "type": "functional, cell-based"}, "[9]": {"test": "T. cruzi intracellular amastigote growth inhibition, dose response, imaging, CA-I/72 strain, bovine embryo skeletal muscle, dry powder (AID 651885)", "type": "functional, cell-based"}, "[10]": {"molecular_target": "Prothrombin (Homo sapiens, UniProt P00734)", "test": "Thrombin 1536 HTS Dose Response Confirmation. [Related pubchem assays: 1046 (Thrombin 1536 HTS; hits were confirmed in this assay)]", "type": "functional"}, "[11]": {"test": "M. tuberculosis growth inhibition, HTS (AID 449762)", "type": "functional"}, "[12]": {"test": "microbe, parasite or virus in culture", "type": "functional", "settings": "Mycobacterium tuberculosis"}, "[13]": {"molecular_target": "Cytochrome P450 3A4 (Homo sapiens, UniProt P08684)", "sequence (P08684 whole entry)": "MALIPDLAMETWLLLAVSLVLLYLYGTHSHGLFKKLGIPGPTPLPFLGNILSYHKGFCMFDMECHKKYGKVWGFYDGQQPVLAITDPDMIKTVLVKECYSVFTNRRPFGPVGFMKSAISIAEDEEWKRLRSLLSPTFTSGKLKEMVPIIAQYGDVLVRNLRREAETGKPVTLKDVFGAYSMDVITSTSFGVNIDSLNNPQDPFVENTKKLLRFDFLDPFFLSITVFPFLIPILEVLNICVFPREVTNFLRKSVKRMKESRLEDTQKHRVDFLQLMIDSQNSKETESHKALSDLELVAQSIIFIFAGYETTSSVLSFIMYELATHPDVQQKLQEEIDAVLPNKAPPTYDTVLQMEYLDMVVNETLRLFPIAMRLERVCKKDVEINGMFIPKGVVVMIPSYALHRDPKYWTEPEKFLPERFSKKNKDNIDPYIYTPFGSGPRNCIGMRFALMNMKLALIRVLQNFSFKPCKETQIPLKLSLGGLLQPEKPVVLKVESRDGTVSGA", "settings": "Potency"}, "[14]": {"molecular_target": "Nuclear receptor subfamily 0 group B member 1 (Homo sapiens, UniProt P51843)", "sequence (P51843 whole entry)": "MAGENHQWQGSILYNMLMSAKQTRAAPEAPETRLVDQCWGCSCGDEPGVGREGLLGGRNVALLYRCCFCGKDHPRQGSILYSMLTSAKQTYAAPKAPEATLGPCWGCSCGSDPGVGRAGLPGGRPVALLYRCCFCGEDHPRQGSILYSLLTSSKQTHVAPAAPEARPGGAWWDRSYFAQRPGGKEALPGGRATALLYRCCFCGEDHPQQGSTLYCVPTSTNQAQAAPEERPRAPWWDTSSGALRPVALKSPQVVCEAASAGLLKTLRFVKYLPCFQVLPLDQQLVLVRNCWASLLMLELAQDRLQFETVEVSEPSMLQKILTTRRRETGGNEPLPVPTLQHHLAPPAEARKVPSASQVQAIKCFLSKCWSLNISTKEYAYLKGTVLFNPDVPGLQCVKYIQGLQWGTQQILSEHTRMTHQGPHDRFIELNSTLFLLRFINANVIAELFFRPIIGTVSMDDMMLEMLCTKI", "type": "functional, cell-based"}, "[15]": {"test": "cells", "type": "functional, cell-based"}, "[16]": {"tested_on": "Streptococcus", "test": "Group A Streptococcus viability loss, dose response, counter-screen for streptokinase expression inhibitor project, luminescence, BacTiterGlo (AID 1915);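 further: potency for reduction of bacterial viability or growth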", "type": "functional, organism-based"}, "[17]": {"tested_on": "Streptococcus sp. 'group A'", "test": "growth inhibition of control SK(-) GAS strain, dose response, counter-screen for streptokinase expression inhibitor project, luminescence, kanamycin, BacTiterGlo, confirmation (AID 1900)", "type": "functional, organism-based"}, "[18]": {"test": "A cytotoxicity screen of small molecule inhibitors of the PhoP region in Salmonella typhi identified in the primary screen. [Related pubchem assays: 1850, 1864, 1985 ]", "type": "functional"}, "[19]": {"test": "cells"}, "[20]": {"molecular_target": "T3, Oxysterols receptor LXR-beta (Homo sapiens, UniProt P55055)", "T3 sequence (P55055 whole entry)": "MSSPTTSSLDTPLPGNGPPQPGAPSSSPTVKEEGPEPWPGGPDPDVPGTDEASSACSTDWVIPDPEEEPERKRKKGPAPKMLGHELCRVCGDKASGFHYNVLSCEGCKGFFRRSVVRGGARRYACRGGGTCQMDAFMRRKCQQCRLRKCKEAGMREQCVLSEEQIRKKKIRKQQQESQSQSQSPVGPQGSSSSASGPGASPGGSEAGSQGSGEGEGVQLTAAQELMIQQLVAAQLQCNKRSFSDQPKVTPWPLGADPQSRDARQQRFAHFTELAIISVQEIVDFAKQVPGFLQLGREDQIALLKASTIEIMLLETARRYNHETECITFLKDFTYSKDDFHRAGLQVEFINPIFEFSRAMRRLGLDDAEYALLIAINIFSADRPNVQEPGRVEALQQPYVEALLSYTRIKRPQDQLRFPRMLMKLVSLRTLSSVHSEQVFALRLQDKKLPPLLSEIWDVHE", "type": "functional, cell-based"}}, "note": "Activity calls are given as the source filed them."}
{"smiles": "CCOc1cc(N2CCOCC2)c(OCC)cc1NC(C)C(=O)N1CCN(CC)CC1", "note": "(configuration not stated)", "values": [{"measurement": "AC50", "setting": "[1]", "result": "46.7 µM (active)"}, {"measurement": "EC50", "setting": "[2]", "result": "82.7 µM (active)"}, {"measurement": "EC50", "setting": "[3]", "result": "> 300 µM (inconclusive)"}]}
{"smiles": "COCCNC(=O)/C(C#N)=C/c1c(N2CCN(c3ccc(OC)cc3)CC2)nc2c(C)cccn2c1=O", "values": [{"measurement": "EC50", "setting": "[4]", "result": "> 69.5 µM (inactive)"}]}
{"smiles": "COc1cccc(Cl)c1NC(=O)N1CCc2c([nH]c3ccccc23)C1C(F)(F)F", "note": "(configuration not stated)", "values": [{"measurement": "AC50", "setting": "[5]", "result": "36.8 µM (active)"}, {"measurement": "AC50", "setting": "[6]", "result": "15 µM (active)"}, {"measurement": "AC50", "setting": "[7]", "result": "2.65 µM (active)"}, {"measurement": "AC50", "setting": "[8]", "result": "4.56 µM (active)"}]}
{"smiles": "CC(C)N(C)C(=O)c1cccc(NC(=O)c2ccncc2)c1OCCCN(C)C(=O)OC(C)(C)C", "values": [{"measurement": "IC50", "setting": "[9]", "result": "10.2 µM (inconclusive)"}]}
{"smiles": "CCC(=O)n1nc(-c2ccc(Cl)cc2)nc1NCc1ccccc1", "values": [{"measurement": "IC50", "setting": "[10]", "result": "1.75 µM (active)"}]}
{"smiles": "COC(=O)c1cccc(C#CC(NP(=O)(c2ccccc2)c2ccccc2)c2ccccc2)c1", "note": "(configuration not stated)", "values": [{"measurement": "IC50", "setting": "[11]", "result": "> 100 µM (active)"}, {"measurement": "CC50", "setting": "[12]", "result": "> 40 µM (active)"}, {"measurement": "AC50", "setting": "[13]", "result": "12.6 µM (inconclusive)"}]}
{"smiles": "O=C(Nc1ccc(Cl)cn1)c1ccc2nccnc2c1", "values": [{"measurement": "IC50", "setting": "[14]", "result": "> 67.6 µM (inactive)"}, {"measurement": "IC50", "setting": "[15]", "result": "> 67.6 µM (inactive)"}]}
{"smiles": "Cc1ccc(S(=O)(=O)CN=C(S)c2ccc3ccccc3c2)cc1", "values": [{"measurement": "EC50", "setting": "[16]", "result": "> 150 µM (not active)"}, {"measurement": "IC50", "setting": "[11]", "result": "> 100 µM (active)"}, {"measurement": "EC50", "setting": "[17]", "result": "3.01 µM (active)"}]}
{"smiles": "Cc1cc(N=Nc2ccc(C)c(N=Nc3cc(C)c(N)cc3N)c2)c(N)cc1N", "values": [{"measurement": "EC50", "setting": "[18]", "result": "> 50 µM (active)"}, {"measurement": "EC50", "setting": "[19]", "result": "> 67.5 µM (inactive)"}, {"measurement": "EC50", "setting": "[20]", "result": "> 67.5 µM (inactive)"}]}
{"smiles": "C[C@@H]1CN([C@@H](C)CO)C(=O)c2cccc(NC(=O)c3ccncc3)c2O[C@H]1CN(C)Cc1ccc(C(F)(F)F)cc1", "values": [{"measurement": "IC50", "setting": "[9]", "result": "10 µM (inconclusive)"}]}
